Measured values from the Kinase Knowledgebase extract (Sharma et al. 2016).

Biological target: EGFR (human) (UniProt P00533)
Sequence (P00533 whole entry, looked up): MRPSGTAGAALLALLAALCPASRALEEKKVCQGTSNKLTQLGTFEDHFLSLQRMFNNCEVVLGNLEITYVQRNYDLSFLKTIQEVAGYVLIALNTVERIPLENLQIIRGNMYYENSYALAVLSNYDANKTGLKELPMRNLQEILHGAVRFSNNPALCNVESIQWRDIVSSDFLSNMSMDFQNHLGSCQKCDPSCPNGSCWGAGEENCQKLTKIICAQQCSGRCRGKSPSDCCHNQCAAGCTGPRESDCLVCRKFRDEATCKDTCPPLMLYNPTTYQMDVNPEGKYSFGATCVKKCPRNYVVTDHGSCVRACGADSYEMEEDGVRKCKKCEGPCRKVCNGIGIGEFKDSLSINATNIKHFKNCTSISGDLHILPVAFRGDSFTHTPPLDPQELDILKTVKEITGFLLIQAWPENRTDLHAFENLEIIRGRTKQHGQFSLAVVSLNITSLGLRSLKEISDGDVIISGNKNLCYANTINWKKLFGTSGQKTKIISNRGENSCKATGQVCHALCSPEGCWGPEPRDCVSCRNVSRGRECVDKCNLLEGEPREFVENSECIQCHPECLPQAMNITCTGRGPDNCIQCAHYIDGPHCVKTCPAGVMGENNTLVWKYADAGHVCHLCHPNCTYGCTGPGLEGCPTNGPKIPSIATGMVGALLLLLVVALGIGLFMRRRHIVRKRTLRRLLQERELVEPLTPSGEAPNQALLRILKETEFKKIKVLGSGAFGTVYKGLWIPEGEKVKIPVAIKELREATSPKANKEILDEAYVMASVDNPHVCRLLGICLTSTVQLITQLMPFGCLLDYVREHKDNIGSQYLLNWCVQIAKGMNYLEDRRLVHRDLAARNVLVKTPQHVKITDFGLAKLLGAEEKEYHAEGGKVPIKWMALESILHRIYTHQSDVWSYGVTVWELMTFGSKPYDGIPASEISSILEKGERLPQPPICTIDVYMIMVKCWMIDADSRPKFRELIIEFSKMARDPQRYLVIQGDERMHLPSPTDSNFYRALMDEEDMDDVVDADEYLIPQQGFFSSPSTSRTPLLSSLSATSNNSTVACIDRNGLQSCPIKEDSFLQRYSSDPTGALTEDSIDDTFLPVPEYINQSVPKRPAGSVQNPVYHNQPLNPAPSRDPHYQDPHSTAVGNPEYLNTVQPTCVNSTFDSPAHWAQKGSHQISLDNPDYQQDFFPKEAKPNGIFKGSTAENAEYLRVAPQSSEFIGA

With CC(C)(C#Cc1cc2ncnc(Nc3ccc(F)c(Cl)c3)c2cc1NS(C)(=O)=O)N1CCC(=O)CC1 the IC50 was 2.1 nM.
With CC(=O)N1CCN(C(C)(C)C#Cc2cc3ncnc(Nc4ccc(F)c(Cl)c4)c3cc2NS(C)(=O)=O)CC1 the IC50 was 2.1 nM.
Work on C=CC(=O)Nc1cc2c(Nc3ccc(F)c(Cl)c3)ncnc2cc1C#CC(C)(C)N(CCOC)CCOC yielded an IC50 of 3.5 nM.
With C#Cc1cccc(Nc2ncnc3cc(OCC)c(C#CC(C)(C)N(C)C4CCN(C)CC4)cc23)c1 the IC50 was 3.2 nM.
Work on CN(C)CCN(C)C(C)(C)C#Cc1cc2ncnc(Nc3ccc(F)c(Cl)c3)c2cc1NS(C)(=O)=O yielded an IC50 of 2.9 nM.
C=CC(=O)Nc1cc2c(Nc3ccc(F)c(Cl)c3)ncnc2cc1C#CC(COCC)(COCC)N1CCN(C)CC1 was tested, and the IC50 was 4.4 nM.
In the case of C=CC(=O)Nc1cc2c(Nc3ccc(F)c(Cl)c3)ncnc2cc1C#CC(C)(C)N1CCN(S(C)(=O)=O)CC1, the IC50 is reported as 1.9 nM.
Compound CC(C)(C#Cc1cc2ncnc(Nc3ccc(F)c(Cl)c3)c2cc1NS(C)(=O)=O)N1CCN(S(C)(=O)=O)CC1 has an IC50 of 2.1 nM.
For C=CC(=O)Nc1cc2c(Nc3ccc(F)c(Cl)c3)ncnc2cc1C#CC(C)(C)N(CC)CCC(=O)OC, the IC50 was 2.6 nM.
With C=CC(=O)Nc1cc2c(Nc3ccc(F)c(Cl)c3)ncnc2cc1C#CC(C)(C)N(C)CCN(C)C the IC50 was 2.4 nM.
Compound C=CC(=O)Nc1cc2c(Nc3ccc(F)c(Cl)c3)ncnc2cc1C#CC(C)(C)N1CCC(O)CC1 has an IC50 of 1.9 nM.
For C=CC(=O)Nc1cc2c(Nc3ccc(F)c(Cl)c3)ncnc2cc1C#CCN1CCN(C)CC1, the IC50 was less than 1 nM.
With CCOc1cc2ncnc(Nc3ccc(F)c(Cl)c3)c2cc1C#CCCN1CCN(C)CC1 the IC50 was 1.2 nM.
C=CC(=O)Nc1cc2c(Nc3ccc(F)c(Cl)c3)ncnc2cc1C#CC(C)(C)N1CCCC1 gave an IC50 of 2.6 nM.
Work on C=CC(=O)Nc1cc2c(Nc3ccc(F)c(Cl)c3)ncnc2cc1C#CC(C)(C)N1CCN(C(C)=O)CC1 yielded an IC50 of less than 1 nM.
C=CC(=O)Nc1cc2c(Nc3ccc(F)c(Cl)c3)ncnc2cc1C#CC(C)(C)N1CCN(CCOC)CC1 gave an IC50 of 1.5 nM.
C=CC(=O)Nc1cc2c(Nc3ccc(F)c(Cl)c3)ncnc2cc1C#CC(C)(C)N1CCCN(C)CC1 gave an IC50 of 3.2 nM.
CS(=O)(=O)Nc1cc2c(Nc3ccc(F)c(Cl)c3)ncnc2cc1C#CCCN1CCOCC1 was tested, and the IC50 was less than 1 nM.
With COCCN(C)C(C)(C)C#Cc1cc2ncnc(Nc3ccc(F)c(Cl)c3)c2cc1NS(C)(=O)=O the IC50 was 3.1 nM.
Work on C=CC(=O)Nc1cc2c(Nc3ccc(F)c(Cl)c3)ncnc2cc1C#CCCN1CCOCC1 yielded an IC50 of less than 1 nM.
In the case of C=CC(=O)Nc1cc2c(Nc3ccc(F)c(Cl)c3)ncnc2cc1C#CC(C)(C)N(C)CCOC, the IC50 is reported as 3.7 nM.
For CCOCC(C#Cc1cc2c(Nc3ccc(F)c(Cl)c3)ncnc2cc1OCC)(COCC)N1CCN(C)CC1, the IC50 was greater than 10 nM.
In the case of C=CC(=O)Nc1cc2c(Nc3ccc(F)c(Cl)c3)ncnc2cc1C#CC(C)(C)N1CCC(OC)CC1, the IC50 is reported as 4.6 nM.
C=CC(=O)Nc1cc2c(Nc3ccc(F)c(Cl)c3)ncnc2cc1C#CC(CC)(CC)N1CCN(C)CC1 showed an IC50 of 2.1 nM.
For C=CC(=O)Nc1cc2c(Nc3ccc(F)c(Cl)c3)ncnc2cc1/C=C/CCN1CCN(C)CC1, the IC50 was less than 1 nM.
With C=CC(=O)Nc1cc2c(Nc3ccc(F)c(Cl)c3)ncnc2cc1C#CC(C)(C)N1CCN(C)CC1 the IC50 was 1.8 nM.
For C#Cc1cccc(Nc2ncnc3cc(OCC)c(C#CC(C)(C)N4CCN(C(C)=O)CC4)cc23)c1, the IC50 was greater than 10 nM.
Compound COc1cc2ncnc(Nc3cccc(C(C)=O)c3)c2cc1C#CC(C)(C)N1CCN(C)CC1 has an IC50 greater than 10 nM.
In the case of CCOc1cc2ncnc(Nc3ccc(F)c(Cl)c3)c2cc1C#CC(C)(C)N(C)C1CCN(C)CC1, the IC50 is reported as 3.8 nM.
In the case of CN1CCCN(C(C)(C)C#Cc2cc3ncnc(Nc4ccc(F)c(Cl)c4)c3cc2NS(C)(=O)=O)CC1, the IC50 is reported as 1.9 nM.
Compound COCCN(CCOC)C(C)(C)C#Cc1cc2ncnc(Nc3ccc(F)c(Cl)c3)c2cc1NS(C)(=O)=O has an IC50 of 6.7 nM.
C=CC(=O)Nc1cc2c(Nc3ccc(F)c(Cl)c3)ncnc2cc1C#CC(C)(C)N1CCC(=O)CC1 showed an IC50 of 1.8 nM.
Work on CN1CCN(CC#Cc2cc3ncnc(Nc4ccc(F)c(Cl)c4)c3cc2NS(C)(=O)=O)CC1 yielded an IC50 of less than 1 nM.
COC1CCN(C(C)(C)C#Cc2cc3ncnc(Nc4ccc(F)c(Cl)c4)c3cc2NS(C)(=O)=O)CC1 was tested, and the IC50 was 5.3 nM.
C=CC(=O)Nc1cc2c(Nc3ccc(F)c(Cl)c3)ncnc2cc1C#CC1(N2CCN(C)CC2)CCCCC1 was tested, and the IC50 was 2.4 nM.
For CN1CCN(CCC#Cc2cc3ncnc(Nc4ccc(F)c(Cl)c4)c3cc2NS(C)(=O)=O)CC1, the IC50 was less than 1 nM.
CCOCC(C#Cc1cc2ncnc(Nc3ccc(F)c(Cl)c3)c2cc1NS(C)(=O)=O)(COCC)N1CCN(C)CC1 gave an IC50 of 10.3 nM.
Compound C=CC(=O)Nc1cc2c(Nc3ccc(F)c(Cl)c3)ncnc2cc1C#CC(C)(C)N1CCN(CC)CC1 has an IC50 of 3.3 nM.
C=CC(=O)Nc1cc2c(Nc3ccc(F)c(Cl)c3)ncnc2cc1C#CC(C)(C)N1CCN(CCC#N)CC1 showed an IC50 of 2.9 nM.
Work on C=CC(=O)Nc1cc2c(Nc3ccc(F)c(Cl)c3)ncnc2cc1C#CCN1CCOCC1 yielded an IC50 of less than 1 nM.
